ChEMBL document CHEMBL1201862, “PubChem BioAssay data set” (2004)
The source made the active and inactive calls.

Experiments:
[1] = biological target: Cytochrome P450 2D6 (Homo sapiens, UniProt P10635);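 also: CYP2D6 member of a cytochrome P450 panel assay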
[2] = biological target: Cytochrome P450 2C9 (Homo sapiens, UniProt P11712)
[3] = biological target: Cytochrome P450 2C19 (Homo sapiens, UniProt P33261); assay: Cytochrome panel assay with activity outcomes. Panel member name: p450-cyp2c19 Compounds with AC50 equal or less than 10 uM are considered active; format: functional
[4] = biological target: T1, Replicative DNA helicase DnaB (Mycobacterium tuberculosis, UniProt P9WMR3); assay: DnaB intein splicing inhibitors, dose response, biochemical, cell-free fluorescence (AID 449749); format: functional
T1 sequence (P9WMR3 whole entry): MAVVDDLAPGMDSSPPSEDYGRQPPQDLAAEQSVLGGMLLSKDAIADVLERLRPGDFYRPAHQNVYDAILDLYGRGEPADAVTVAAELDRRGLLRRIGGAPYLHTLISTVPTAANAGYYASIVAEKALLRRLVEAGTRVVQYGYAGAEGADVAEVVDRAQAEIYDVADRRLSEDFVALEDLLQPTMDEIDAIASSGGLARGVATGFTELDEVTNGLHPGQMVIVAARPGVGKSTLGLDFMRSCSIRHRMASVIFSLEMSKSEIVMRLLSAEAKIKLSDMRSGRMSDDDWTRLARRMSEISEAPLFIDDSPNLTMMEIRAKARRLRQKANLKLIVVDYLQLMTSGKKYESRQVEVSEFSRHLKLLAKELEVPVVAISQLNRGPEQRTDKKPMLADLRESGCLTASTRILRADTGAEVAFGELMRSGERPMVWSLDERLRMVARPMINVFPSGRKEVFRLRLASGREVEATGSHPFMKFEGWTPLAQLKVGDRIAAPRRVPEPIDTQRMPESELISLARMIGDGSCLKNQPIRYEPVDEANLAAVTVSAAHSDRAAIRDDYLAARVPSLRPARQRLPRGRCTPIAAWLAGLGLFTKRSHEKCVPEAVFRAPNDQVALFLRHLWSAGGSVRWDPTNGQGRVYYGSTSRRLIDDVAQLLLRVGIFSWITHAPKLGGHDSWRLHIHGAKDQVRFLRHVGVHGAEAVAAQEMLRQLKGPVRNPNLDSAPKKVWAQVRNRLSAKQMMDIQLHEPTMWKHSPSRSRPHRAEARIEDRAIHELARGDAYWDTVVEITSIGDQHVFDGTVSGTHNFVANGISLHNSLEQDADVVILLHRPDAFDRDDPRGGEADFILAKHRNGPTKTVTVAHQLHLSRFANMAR

[5] = biological target: T2, Protein RecA (Mycobacterium tuberculosis, UniProt P9WHJ3); assay: Fluorescence Cell-Free Homogeneous Dose Retest to Identify Inhibitors of RecA-Intein Splicing Activity. [Related pubchem assays (depositor defined):AID2097, AID2223, AID489010, AID492950]; format: functional
T2 sequence (P9WHJ3 whole entry): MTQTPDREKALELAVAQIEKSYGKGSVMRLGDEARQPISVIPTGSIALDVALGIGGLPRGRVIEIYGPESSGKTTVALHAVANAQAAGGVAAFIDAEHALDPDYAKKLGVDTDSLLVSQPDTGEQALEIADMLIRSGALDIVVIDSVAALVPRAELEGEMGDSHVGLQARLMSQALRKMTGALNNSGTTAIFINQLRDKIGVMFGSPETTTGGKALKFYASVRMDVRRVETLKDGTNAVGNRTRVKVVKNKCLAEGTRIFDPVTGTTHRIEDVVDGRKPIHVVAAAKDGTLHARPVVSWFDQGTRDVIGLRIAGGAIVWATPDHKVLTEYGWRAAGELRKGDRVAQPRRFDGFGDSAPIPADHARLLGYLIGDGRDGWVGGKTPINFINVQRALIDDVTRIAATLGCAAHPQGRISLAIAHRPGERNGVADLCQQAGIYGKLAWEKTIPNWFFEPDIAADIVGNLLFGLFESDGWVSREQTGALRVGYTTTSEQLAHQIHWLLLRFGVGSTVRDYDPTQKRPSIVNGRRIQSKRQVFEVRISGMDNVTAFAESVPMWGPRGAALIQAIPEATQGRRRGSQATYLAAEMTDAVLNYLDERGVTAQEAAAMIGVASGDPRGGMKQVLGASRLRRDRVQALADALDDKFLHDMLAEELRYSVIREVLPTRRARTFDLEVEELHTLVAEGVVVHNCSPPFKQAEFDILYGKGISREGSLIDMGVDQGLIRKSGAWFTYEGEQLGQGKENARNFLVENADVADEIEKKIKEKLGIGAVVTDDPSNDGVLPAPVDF

[6] = biological target: Large T antigen (Simian virus 40, UniProt P03070); format: functional, Betapolyomavirus macacae;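 also: Confirmatory-stage PubChem screen for compounds that inhibit SV40 T antigen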
[7] = biological target: T3, Corticotropin-releasing factor receptor 2/Corticotropin-releasing factor-binding protein (Homo sapiens, UniProt P24387+Q13324); assay: activators of CRF receptor 2 with binding protein – uHTS hits, confirmation (AID 602473); format: functional; conditions: read-out: EC50_Mean
T3 sequence (Q13324 whole entry): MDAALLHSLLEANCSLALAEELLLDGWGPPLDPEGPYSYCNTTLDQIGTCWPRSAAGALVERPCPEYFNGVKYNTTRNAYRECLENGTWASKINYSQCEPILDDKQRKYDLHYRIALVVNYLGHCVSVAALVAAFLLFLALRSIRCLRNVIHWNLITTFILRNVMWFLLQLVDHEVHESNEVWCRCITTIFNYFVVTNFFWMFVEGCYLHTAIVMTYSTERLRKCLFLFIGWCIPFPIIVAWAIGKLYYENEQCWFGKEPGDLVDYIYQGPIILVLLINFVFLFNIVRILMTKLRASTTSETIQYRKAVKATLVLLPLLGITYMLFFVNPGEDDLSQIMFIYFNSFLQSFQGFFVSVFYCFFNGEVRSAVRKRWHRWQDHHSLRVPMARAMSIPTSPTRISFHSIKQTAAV
T3 sequence (P24387 whole entry): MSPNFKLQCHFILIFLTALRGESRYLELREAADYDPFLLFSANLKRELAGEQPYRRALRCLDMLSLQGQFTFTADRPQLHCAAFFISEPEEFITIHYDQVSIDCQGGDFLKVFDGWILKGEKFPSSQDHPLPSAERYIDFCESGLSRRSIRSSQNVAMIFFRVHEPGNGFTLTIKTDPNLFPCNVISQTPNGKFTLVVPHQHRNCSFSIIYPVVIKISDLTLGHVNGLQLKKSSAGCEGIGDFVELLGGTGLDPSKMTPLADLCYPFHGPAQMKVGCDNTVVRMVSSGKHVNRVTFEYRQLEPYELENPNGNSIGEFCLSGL

[8] = system: INS1; assay: beta cell apoptosis inhibitors, cytokine rescue, dose response, luminescence, retest (AID 449756); format: functional, cell-based; conditions: Rattus norvegicus;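 also: cell death triggered by IL-1 beta plus TNF-alpha plus IFN-gamma mixture; protective hits raise ATP signal compared with cytokine alone wells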
[9] = cytotoxicity toward NIH3T3 fibroblasts, dose response, counter-screen, cell-based, ATP luminescence, mouse fibroblasts (AID 2010); format: functional;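 also: cells exposed to compound for about 90 hours before reading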
[10] = inhibitors of intracellular T. cruzi replication, confirmation, NIH3T3 host cells, beta-gal luminescence (AID 2044); format: functional, cell-based;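 also: intracellular parasites grown in NIH/3T3 mouse fibroblasts as host cells; luminescent beta-galactosidase reporter signal from transgenic T. cruzi replicating inside host cells; inhibitors lower the luminescence signal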

Chain of Cytochrome P450 2C19 (P33261 whole entry): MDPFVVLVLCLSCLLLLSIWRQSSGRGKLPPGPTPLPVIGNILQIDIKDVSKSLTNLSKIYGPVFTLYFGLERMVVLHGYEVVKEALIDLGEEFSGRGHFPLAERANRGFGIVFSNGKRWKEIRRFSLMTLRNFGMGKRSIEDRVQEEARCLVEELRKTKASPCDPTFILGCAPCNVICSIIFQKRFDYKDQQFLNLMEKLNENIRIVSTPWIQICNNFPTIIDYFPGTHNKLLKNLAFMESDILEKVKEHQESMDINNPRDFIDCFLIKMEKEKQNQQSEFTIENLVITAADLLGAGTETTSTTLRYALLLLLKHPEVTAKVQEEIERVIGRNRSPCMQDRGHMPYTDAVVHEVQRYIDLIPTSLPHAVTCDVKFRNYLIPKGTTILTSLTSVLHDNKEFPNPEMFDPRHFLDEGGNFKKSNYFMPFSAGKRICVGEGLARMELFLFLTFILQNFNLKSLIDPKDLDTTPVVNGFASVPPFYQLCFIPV
Chain of Large T antigen (P03070 whole entry): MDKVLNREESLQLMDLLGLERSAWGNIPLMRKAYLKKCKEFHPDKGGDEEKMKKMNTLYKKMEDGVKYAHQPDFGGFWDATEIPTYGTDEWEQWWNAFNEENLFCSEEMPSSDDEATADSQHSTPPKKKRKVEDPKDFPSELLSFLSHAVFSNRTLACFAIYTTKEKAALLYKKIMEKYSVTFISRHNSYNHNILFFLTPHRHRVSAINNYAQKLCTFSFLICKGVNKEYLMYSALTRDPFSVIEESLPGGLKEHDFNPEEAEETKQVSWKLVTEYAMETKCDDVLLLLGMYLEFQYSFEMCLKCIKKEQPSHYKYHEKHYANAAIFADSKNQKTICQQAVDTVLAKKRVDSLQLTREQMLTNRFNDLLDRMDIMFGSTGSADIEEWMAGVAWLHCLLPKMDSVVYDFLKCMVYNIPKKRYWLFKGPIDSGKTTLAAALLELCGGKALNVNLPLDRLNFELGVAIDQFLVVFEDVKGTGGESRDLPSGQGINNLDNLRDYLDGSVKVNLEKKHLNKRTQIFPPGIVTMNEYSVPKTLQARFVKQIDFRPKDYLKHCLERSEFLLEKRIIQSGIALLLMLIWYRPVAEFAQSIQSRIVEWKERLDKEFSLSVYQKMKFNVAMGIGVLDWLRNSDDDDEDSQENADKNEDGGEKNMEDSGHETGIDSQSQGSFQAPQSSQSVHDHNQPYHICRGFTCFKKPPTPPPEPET
Chain of Cytochrome P450 2C9 (P11712 whole entry): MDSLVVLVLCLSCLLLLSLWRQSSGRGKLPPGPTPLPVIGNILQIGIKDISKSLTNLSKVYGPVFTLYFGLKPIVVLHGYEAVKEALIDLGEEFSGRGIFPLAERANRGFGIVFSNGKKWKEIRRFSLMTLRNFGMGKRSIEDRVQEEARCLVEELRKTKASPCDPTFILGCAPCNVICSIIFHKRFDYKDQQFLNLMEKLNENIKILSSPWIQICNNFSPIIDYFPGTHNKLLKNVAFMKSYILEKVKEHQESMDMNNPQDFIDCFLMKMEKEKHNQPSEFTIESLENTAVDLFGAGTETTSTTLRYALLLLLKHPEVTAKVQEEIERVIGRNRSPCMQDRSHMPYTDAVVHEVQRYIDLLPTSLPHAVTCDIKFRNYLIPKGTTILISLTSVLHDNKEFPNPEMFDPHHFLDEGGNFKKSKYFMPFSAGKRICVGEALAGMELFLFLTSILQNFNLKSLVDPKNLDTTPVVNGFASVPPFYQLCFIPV
Chain of Cytochrome P450 2D6 (P10635 whole entry): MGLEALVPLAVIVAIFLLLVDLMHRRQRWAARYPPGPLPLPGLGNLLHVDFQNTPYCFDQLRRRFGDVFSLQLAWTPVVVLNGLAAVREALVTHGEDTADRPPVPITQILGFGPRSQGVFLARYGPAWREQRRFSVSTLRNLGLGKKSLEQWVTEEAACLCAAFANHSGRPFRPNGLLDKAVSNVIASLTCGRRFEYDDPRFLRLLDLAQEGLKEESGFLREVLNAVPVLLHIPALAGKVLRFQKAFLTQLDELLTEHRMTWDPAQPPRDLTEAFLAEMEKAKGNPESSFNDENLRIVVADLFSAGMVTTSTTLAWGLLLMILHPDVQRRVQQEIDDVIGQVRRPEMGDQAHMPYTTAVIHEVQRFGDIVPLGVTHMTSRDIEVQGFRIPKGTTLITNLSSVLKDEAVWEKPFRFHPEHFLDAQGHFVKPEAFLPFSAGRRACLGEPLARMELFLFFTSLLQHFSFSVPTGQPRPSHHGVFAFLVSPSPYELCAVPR

Cc1cc(=O)oc(C)c1C(=O)NCCCN1CCN(c2ccc(F)cc2)CC1
AC50 [1]: 15.8 µM (inconclusive) | AC50 [2]: 15.8 µM (inconclusive)

c1ccc(-c2n[nH]c(-c3ccccc3)c2-c2nc3ccccc3[nH]2)cc1
AC50 ([3]; read-out: AC50): 22.4 µM (inconclusive)

CC1=NNC(=O)C1C(c1ccccc1)C(C#N)C#N (stereo unspecified)
AC50 [4]: 5.23 µM (active) | EC50 [5]: 3.84 µM (active)

O=C(c1ccccc1)N1CCSC1=S
AC50 ([3]; read-out: AC50): 25.1 µM (inconclusive)

NC(=O)C1CCN(C(=O)OCc2ccccc2)CC1
AC50 ([3]; read-out: AC50): 11.2 µM (inconclusive)

CCC(=O)Oc1ccc(C(=O)Nc2cccc(C(=O)c3ccccc3)c2)cc1
AC50 [4]: 13.2 µM (active) | EC50 [5]: 13.8 µM (active)

O=C1/C(=C/c2ccncc2)SC(=S)N1Nc1ccccc1
IC50 [6]: 12.7 µM (active)

Cc1n[nH]c(Nc2ccc(O)cc2)c1[N+](=O)[O-]
IC50 [6]: 7.06 µM (active)

COC(=O)c1c(NC(=O)CN2CCC3(O)CCCCC3C2c2ccccc2OC)sc(C)c1C (stereo unspecified)
EC50 [7]: > 53 µM (inactive)

CC(C)(C)c1[nH]nc2c1C(c1ccoc1)C(C#N)=C(N)O2 (stereo unspecified)
AC50 [4]: 20.4 µM (active) | EC50 [5]: 3.58 µM (active)

CC(=O)Nc1ccc(NC(=O)CSc2ncc(C(=O)Nc3ccc(F)cc3)c(=O)n2C)cc1
AC50 [4]: > 380 µM (inactive) | EC50 [5]: > 380 µM (inconclusive)

CC(C)N1CCc2c(sc(NC(=O)c3ccc(S(=O)(=O)N4CCOCC4)cc3)c2C#N)C1
EC50 [7]: 5.69 µM (active)

O=C1O[C@@H]([C@H](O)[C@H](O)[C@H](O)CO)[C@@H](O)[C@@H]1O
AC50 [3]: inconclusive

Cc1cc(C(=O)CN2C(=O)c3ccccc3C2=O)c(C)n1C1CC1
AC50 [4]: > 380 µM (inactive) | EC50 [5]: > 380 µM (inactive)

Cn1c(=O)c2c(nc(S)n2Cc2ccc(Cl)cc2)n(C)c1=O
IC50 [6]: 16.2 µM (active)

Fc1ccc(Oc2nc(-c3ccccn3)nc3ccccc23)cc1
AC50 [8]: 4.84 µM (active)

CC[C@@H]1C/C=C\Cc2ccccc2[C@H](C(=O)C[C@@H](O)CC(C)=O)OC1=O
AC50 [8]: > 260 µM (inactive)

COc1cc(CNc2ccc(N3CCOCC3)cc2)ccc1OCC(=O)NC(C)(C)C
IC50 [6]: 4.16 µM (active)

CCCc1[nH][nH]c(=O)c1C(c1cccc(Cl)c1)C(C#N)C#N (stereo unspecified)
AC50 [4]: > 380 µM (inactive) | EC50 [5]: 0.755 µM (active)

CCN1C(=O)C2(C(C(=O)c3cc4ccccc4o3)=C(O)C(=O)N2CCCN(C)C)c2ccccc21 (stereo unspecified)
IC50 [6]: 52.4 µM (active)

C=CCn1c(SCC(C)=O)nc2scc(-c3ccco3)c2c1=O
IC50 [6]: 60.2 µM (active)

C/C=C/C(=O)Nc1cccc(C2=NOC3(C2)C[C@@H](C(N)=O)N(C(=O)c2cc([N+](=O)[O-])cc([N+](=O)[O-])c2C)C3)c1 (stereo partly specified)
EC50 [7]: > 53 µM (inactive)

COc1cc(/C=C2/C(=O)N(c3ccccc3)N=C2C)ccc1OS(=O)(=O)c1ccccc1
AC50 [4]: 1.94 µM (active) | EC50 [5]: 1.5 µM (active)

Cc1ccc(-n2nnnc2CCl)cc1
AC50 [4]: 54.2 µM (active) | EC50 [5]: 7.8 µM (active)

Cc1cccc(C(=O)NNC(=O)C2CCCO2)c1 (stereo unspecified)
AC50 ([3]; read-out: AC50): 5.01 µM (inconclusive)

O=C(Oc1ccc(Br)cc1C(=S)N1CCCCC1)c1cc([N+](=O)[O-])cc([N+](=O)[O-])c1
AC50 [4]: 23.9 µM (active) | EC50 [5]: 1.71 µM (active)

COc1ccc(NC(=O)Cn2cccc2)c(OC)c1
AC50 [2]: 7.08 µM (inconclusive)

CCOc1ccc(C(c2c(C)n[nH]c2O)c2c(C)n[nH]c2O)cc1OCC
AC50 [4]: 0.412 µM (active) | EC50 [5]: 0.183 µM (active)

O=C(Oc1ccccc1[N+](=O)[O-])c1cccnc1
AC50 [2]: 15.8 µM (inconclusive)

Cc1ccnc(NC(=O)c2cccc(NC(=O)COc3ccccc3)c2)c1
AC50 [1]: 17.8 µM (inconclusive) | AC50 [2]: 4.47 µM (inconclusive)

COc1ccc(N2CCC(CN=C(S)Nc3c(C)cccc3C)C2)cc1 (stereo unspecified)
EC50 [9]: > 60 µM (not active) | EC50 [10]: 2.76 µM (active) | IC50 [6]: 14.6 µM (active)

CCN(C(=O)CSc1ncccc1C(=O)Oc1cccc([N+](=O)[O-])c1)c1cccc(C)c1
AC50 [4]: 3.43 µM (active) | EC50 [5]: > 380 µM (inconclusive)

COC(=O)[C@@]1(Cc2ccc(OC)cc2)[C@H]2c3cc(C(=O)N(C)C)n(CCc4ccccn4)c3C[C@H]2CN1C(=O)c1ccccc1
AC50 ([3]; read-out: AC50): 39.8 µM (inconclusive)

c1ccc2c(CNC3CCCCC3)c[nH]c2c1
AC50 [8]: 8.45 µM (active)

O=Cc1sc(=O)n(Cc2cccc(C(=O)O)c2)c1Cl
IC50 [6]: 18.6 µM (active) | AC50 [4]: 16.5 µM (active) | EC50 [5]: 9.42 µM (active)

C/C(=C/C(=O)NCc1ccccc1)C(=O)O
AC50 [2]: 0.0398 µM (inconclusive) | AC50 [3]: inconclusive

COC(=O)[C@H](Cc1ccccc1)N(Cc1ccccc1)S(=O)(=O)N(Cc1ccccc1)[C@@H](Cc1ccccc1)C(=O)OC
AC50 [8]: 4.51 µM (active)

CCNC(=O)C1CC(=O)OC12CCCCC2 (stereo unspecified)
AC50 [2]: 25.1 µM (inconclusive)

Cc1ccc(C(=O)COC(=O)c2ccccc2N2C(=O)C3C4CCC(C4)C3C2=O)cc1C (stereo unspecified)
AC50 [2]: 2 µM (inconclusive)

Nc1ccc(O)c2ccccc12
AC50 [4]: 16 µM (active) | EC50 [5]: 10.1 µM (active)

CCN1C(=O)C(=CC=CN(C)c2ccccc2)SC1=S
EC50 [7]: 6.59 µM (active)

COc1cc(/C=N/NC(=O)CC#N)cc(Br)c1O
IC50 [6]: 9.57 µM (active)

CCOC(=O)N/N=C\c1ccc(OC(=O)c2ccco2)cc1
AC50 [4]: 17 µM (active) | EC50 [5]: 14.5 µM (active)

COc1cc(/C=N/NC(=O)C(=O)NCc2ccco2)ccc1O
IC50 [6]: 12.9 µM (active)

NS(=O)(=O)c1ccc(/N=C/c2c(O)oc3ccccc3c2=O)cc1
AC50 [4]: > 380 µM (inactive) | EC50 [5]: > 380 µM (inactive)
